Measurements: ChEMBL document CHEMBL1151594, “Aromatic guanyl hydrazones: Synthesis, structural studies and in vitro activity against Trypanosoma cruzi” (1995)

Columns and labels:
Format in all cases: functional
Trypanosoma cruzi = assay: In vitro inhibitory activity against trypomastigote form of Trypanosoma Cruzi.; settings: read-out: ID50 (the source's name)
Mus musculus [1] = species: Mus musculus; assay: Effect on lysis of erythrocytes after 24 hr at 4 degree centigrade; Value given as 150-200
Mus musculus [2] = species: Mus musculus; assay: Effect on lysis of erythrocytes after 24 hr at 4 degree centigrade; Value given as 500-600
Mus musculus [3] = species: Mus musculus; assay: Effect on lysis of erythrocytes after 24 hr at 4 degree centigrade; Value given as 40-50
Mus musculus [4] = species: Mus musculus; assay: Effect on lysis of erythrocytes after 24 hr at 4 degree centigrade; Value given as 300-400
Mus musculus [5] = species: Mus musculus; assay: Effect on lysis of erythrocytes after 24 hr at 4 degree centigrade; Value given as 100-150
Mus musculus [6] = species: Mus musculus; assay: Effect on lysis of erythrocytes after 24 hr at 4 degree centigrade; Value given as 75-100
Mus musculus [7] = species: Mus musculus; assay: Effect on lysis of erythrocytes after 24 hr at 4 degree centigrade; Value given as 500-700
Mus musculus [8] = species: Mus musculus; assay: Effect on lysis of erythrocytes after 24 hr at 4 degree centigrade; Value given as 400-500
Mus musculus [9] = species: Mus musculus; assay: Effect on lysis of erythrocytes after 24 hr at 4 degree centigrade; Value given as 250-300
Mus musculus [10] = species: Mus musculus; assay: Effect on lysis of erythrocytes after 24 hr at 4 degree Centigrade
Mus musculus [11] = species: Mus musculus; assay: Effect on lysis of erythrocytes after 24 hr at 4 degree centigrade; Value given as 1200-1400
Mus musculus [12] = species: Mus musculus; assay: Effect on lysis of erythrocytes after 24 hr at 4 degree centigrade; Value given as 50-75
Mus musculus [13] = species: Mus musculus; assay: Effect on lysis of erythrocytes after 24 hr at 4 degree centigrade; Value given as 700-1000

Cl.N=C(N)N/N=C/c1ccc([N+](=O)[O-])cc1 gave an IC50 (Trypanosoma cruzi) of 55.9 µM and a Total lysis (Mus musculus [1]) of 150 µM.

With COc1ccc(OC)c(/C=N/NC(=N)N)c1.Cl the IC50 (Trypanosoma cruzi) was 41.4 µM and the Total lysis (Mus musculus [1]) was 150 µM.

Molecule COc1ccccc1/C=N/NC(=N)N.Cl has an IC50 (Trypanosoma cruzi) of 86.3 µM and a Total lysis (Mus musculus [1]) of 150 µM.

For CN(C)c1ccc(/C=N/NC(=N)N)cc1.Cl, the IC50 (Trypanosoma cruzi) was 202 µM and the Total lysis (Mus musculus [2]) was 500 µM.

Cl.N=C(N)N/N=C/c1cc2c(cc1[N+](=O)[O-])OCO2 gave an IC50 (Trypanosoma cruzi) of 17.1 µM and a Total lysis (Mus musculus [3]) of 40 µM.

Cl.N=C(N)N/N=C/c1ccccc1O was tested, and the IC50 (Trypanosoma cruzi) was 166 µM and the Total lysis (Mus musculus [4]) was 300 µM.

In the case of COc1ccc(/C=N/NC(=N)N)c(OC)c1.Cl, the IC50 (Trypanosoma cruzi) is reported as 33.8 µM and the Total lysis (Mus musculus [5]) is reported as 100 µM.

Work on CCOc1ccccc1/C=N/NC(=N)N.Cl yielded an IC50 (Trypanosoma cruzi) of 34.7 µM and a Total lysis (Mus musculus [6]) of 75 µM.

Work on Cl.N=C(N)N/N=C/c1ccccc1[N+](=O)[O-] yielded an IC50 (Trypanosoma cruzi) of 87.5 µM and a Total lysis (Mus musculus [1]) of 150 µM.

For Cl.N=C(N)N/N=C/c1cccc([N+](=O)[O-])c1, the IC50 (Trypanosoma cruzi) was 183 µM and the Total lysis (Mus musculus [7]) was 500 µM.

Cl.N=C(N)N/N=C/c1ccccc1N showed an IC50 (Trypanosoma cruzi) of 261 µM and a Total lysis (Mus musculus [2]) of 500 µM.

Cl.N=C(N)N/N=C/c1ccccc1 showed a Total lysis (Mus musculus [8]) of 400 µM.

Molecule CCOc1cccc(/C=N/NC(=N)N)c1O.Cl has an IC50 (Trypanosoma cruzi) of 97.8 µM and a Total lysis (Mus musculus [1]) of 150 µM.

Molecule Cc1ccc(/C=N/NC(=N)N)cc1.Cl has an IC50 (Trypanosoma cruzi) of 103 µM and a Total lysis (Mus musculus [9]) of 250 µM.

In the case of Cl.N=C(N)N/N=C/c1cccc([N+](=O)[O-])c1O, the IC50 (Trypanosoma cruzi) is reported as 876 µM and the Total lysis (Mus musculus [10]) is reported as over 1400 µM.

Work on Cl.N=C(N)N/N=C/c1cc2c(cc1N)OCO2 yielded an IC50 (Trypanosoma cruzi) of 221 µM and a Total lysis (Mus musculus [2]) of 500 µM.

Work on Cl.N=C(N)N/N=C/c1ccc(C(=O)O)cc1 yielded an IC50 (Trypanosoma cruzi) of 573 µM and a Total lysis (Mus musculus [11]) of 1200 µM.

In the case of Cl.N=C(N)N/N=C/c1cc2c(cc1Br)OCO2, the Total lysis (Mus musculus [12]) is reported as 50 µM.

Cl.N=C(N)N/N=C/c1ccc2c(c1)OCO2 showed a Total lysis (Mus musculus [13]) of 700 µM.

For COc1cc(/C=N/NC(=N)N)ccc1O, the IC50 (Trypanosoma cruzi) was over 4800 µM.

With COc1cccc(/C=N/NC(=N)N)c1OC.Cl the Total lysis (Mus musculus [6]) was 75 µM.

Cl.N=C(N)N/N=C/c1ccc(Cl)cc1 gave a Total lysis (Mus musculus [5]) of 100 µM.

In the case of CN(C)c1ccc(C(=C2C=CC(=[N+](C)C)C=C2)c2ccc(N(C)C)cc2)cc1 [GENTIAN VIOLET], the IC50 (Trypanosoma cruzi) is reported as 536 µM.
